Source: patent publication EP0726760B1, “SELF-EMULSIBLE FORMULATION FORMING AN OIL-IN-WATER EMULSION” (YISSUM RESEARCH DEVELOPMENT COMPANY OF THE HEBREW …, priority 1993, dated 1995)
Where two headings read alike, the source gives them in different places.

Experiment: Acute toxicity after intraperitoneal injection, 30 days
Set-up: species or system souris BALB/c
Conditions: mouse, in vivo, ip, printed 1:10 (0.5), i.p., read-out: % de survivants après 30 jours
Description: La toxicité aiguë des formulations décrites dans les exemples II - IV, a été examinée sur des souris BALB/c pendant 30 jours. 0.5 ml de chacun des SEOF dilué au 10ème (plus que 300 fois constitue un surdosage) et au 100ème (plus que 30 fois constitue un surdosage) ont été injectés intrapéritonalement au groupe de 4-6 souris. L'état de l'animal a été surveillé pendant plusieurs heures après le processus et ensuite chaque jour, pandant un mois.

OCc1ccccc1 [BA, alcool benzylique]
survival at 720 h (BA 1.5 % in water for injection): 100%
survival at 720 h (BA 3 % in water for injection): 15%
